Data published in patent US20080280879A1, “SUBSTITUTED HETEROCYCLIC DERIVATIVES AND THEIR PHARMACEUTICAL USE AND COMPOSITIONS” (priority 2007, published 2008).
In brackets after ≈: the same amount, converted by molar mass.

Experiments:
Assay type in all cases: cell-based, Staphylococcus aureus
Staph aureus 1095 MRSA = experiment: MIC, microtiter broth dilution (CLSI M7-A7), Assay 1, Table 12 column A, no serum; details: Assay 1, no serum; for MIC: Staphylococcus aureus, MRSA
Experimental: (§1) The assays described herein include a panel of bacterial isolates of Staphylococcus aureus. Assay 1 comprises the strains noted in Columns A through E, and Assay 2 comprises the strains noted in Columns F through H. The assays are performed in microtiter trays according to Methods for Dilution Antimicrobial Susceptibility Tests for Bacteria that Grow Aerobically; Approved Standard-7th edition (M7-A7) and interpreted according to the Performance Standards for Antimicrobial Susceptibility Testing; 16th Informational Supplement (M100-S16) published by Clinical Laboratory Standards Institute (CLSI). The antibacterial activity is presented in the form of a minimum inhibitory concentration (MIC) value in μg/ml format. The MIC value represents the lowest concentration of drug measured which prevented macroscopically visible growth under the conditions and specific doses tested. The compounds were initially dissolved in DMSO as 30 mM stocks and diluted accordingly to adjust to a concentration of 10 mg/ml or the compounds were dissolved in DMSO at a concentration of 10 mg/ml. For assessment of activity in the presence of human serum, S. aureus 1146 and S. aureus 1031 were inoculated into Mueller-Hinton Broth with 50% pooled inactivated human serum. In some cases, compounds were tested more than once in a particular assay. Where noted, the MIC value shown in Table 12 represents the geometric mean of the data from multiple runs.
(§2) It should be understood that the data in columns A-H represents MIC data in μg/ml and the notation “<=” means ‘less than or equal to’.

Staph aureus 1146 [1] = experiment: MIC, microtiter broth dilution (CLSI M7-A7), Assay 1, Table 12 column B, no serum; details: for MIC, column B: Staph aureus 1146, Assay 1, no serum; for MIC: Staphylococcus aureus, 1146, Staph aureus 1146, Assay 1, no serum
Experimental: as §1, §2

Staph aureus 1146 [2] = experiment: MIC in Mueller-Hinton Broth with 50% pooled inactivated human serum, Assay 1, Table 12; details: for MIC, column C: Staph aureus 1146, Assay 1, 50% human serum; for MIC: Staphylococcus aureus, 1146, Staph aureus 1146, Assay 1, 50% human serum, read-out: MIC, column C
Experimental: as §1, §2

Staph aureus 2811 = experiment: MIC, microtiter broth dilution (CLSI M7-A7), Assay 1, Table 12 column D, no serum; details: for MIC, column D: Staph aureus 2811, Assay 1, no serum; for MIC: Staphylococcus aureus, 2811, Staph aureus 2811, Assay 1, no serum
Experimental: as §1, §2

Staph aureus 2812 = experiment: MIC, microtiter broth dilution (CLSI M7-A7), Assay 1, Table 12 column E, no serum; details: for MIC, column E: Staph aureus 2812, Assay 1, no serum; for MIC: Staphylococcus aureus, 2812, Staph aureus 2812, Assay 1, no serum
Experimental: as §1, §2

| Compound | MIC, column A (Staph aureus 1095 MRSA) [µg/mL] | MIC, column B (Staph aureus 1146 [1]) [µg/mL] | MIC, column C (Staph aureus 1146 [2]) [µg/mL] | MIC, column D (Staph aureus 2811) [µg/mL] | MIC, column E (Staph aureus 2812) [µg/mL] | MIC (Staph aureus 1095 MRSA) [µg/mL] | MIC (Staph aureus 1146 [1]) [µg/mL] | MIC (Staph aureus 1146 [2]) [µg/mL] | MIC (Staph aureus 2811) [µg/mL] | MIC (Staph aureus 2812) [µg/mL] |
| --- | --- | --- | --- | --- | --- | --- | --- | --- | --- | --- |
| COc1ccc2ncc(F)c([C@@H](O)CNC3(C(=O)O)CCCN(C4CC(c5ccccc5)C4)CC3)c2c1 (single isomer, unassigned) [Example 150] | 4 (≈ 7.88 µM) | 2 (≈ 3.94 µM) | 4 (≈ 7.88 µM) | 2 (≈ 3.94 µM) | 2 (≈ 3.94 µM) |  |  |  |  |  |
| COc1ccc2ncc(F)c(C(O)CC[C@@H]3CCN(C4CC(c5c(F)cccc5F)C4)C[C@@H]3C(=O)O)c2c1 (stereo partly drawn) [Example 17, (3R,4R)-1-[3-(2,6-difluorophenyl)cyclobutyl]-4-[3-(3-fluoro-6-methoxyquinolin-4-yl)-3-hydroxypropyl]piperidine-3-carboxylic acid] |  |  |  |  |  | ≤ 0.0625 | ≤ 0.0625 | 0.5 (≈ 0.946 µM) | ≤ 0.0625 | ≤ 0.0625 |
| COc1ccc2nccc(C(O)CC[C@@H]3CCN(C4CC(c5cc(C)sn5)C4)C[C@@H]3C(=O)O)c2c1 (stereo partly drawn) [Example 22, (3R,4R)-4-[3-hydroxy-3-(6-methoxyquinolin-4-yl)propyl]-1-[3-(5-methylisothiazol-3-yl)cyclobutyl] piperidine-3-carboxylic acid] |  |  |  |  |  | 4 (≈ 8.07 µM) | 1 (≈ 2.02 µM) | 8 (≈ 16.1 µM) | 1 (≈ 2.02 µM) | 2 (≈ 4.04 µM) |
| COc1ccc2ncc(F)c(CCCC3(C(=O)O)CCN(C4CC(c5ccccc5)C4)CC3)c2c1 (stereo not shown) [Example 23, 4-[3-(3-fluoro-6-methoxyquinolin-4-yl)propyl]-1-(3-phenylcyclobutyl)piperidine-4-carboxylic acid] |  |  |  |  |  | ≤ 0.0625 | ≤ 0.0625 | > 64 | ≤ 0.0625 | ≤ 0.0625 |
| COc1ccc2ncc(F)c(C(O)CCC3(C(=O)O)CCN(C4CC(c5ccccc5)C4)CC3)c2c1 (stereo not shown) [Example 24, 4-[3-(3-fluoro-6-methoxyquinolin-4-yl)-3-hydroxypropyl]-1-(3-phenylcyclobutyl)piperidine-4-carboxylic acid] |  |  |  |  |  | 16 (≈ 32.5 µM) | 4 (≈ 8.12 µM) | > 64 | 4 (≈ 8.12 µM) | 8 (≈ 16.2 µM) |
| COc1ccc2nccc(C(O)CC[C@@H]3CCN(C4CC(c5ccc(OC)c(OC)c5)C4)C[C@@H]3C(=O)O)c2c1 (stereo partly drawn) [Example 32, (3R,4R)-1-[3-(3,4-dimethoxyphenyl)cyclobutyl]-4-[3-hydroxy-3-(6-methoxyquinolin-4-yl)propyl] piperidine-3-carboxylic acid] |  |  |  |  |  | 64 (≈ 120 µM) | > 64 | > 64 | 64 (≈ 120 µM) | 64 (≈ 120 µM) |
| COc1ccc2nccc(C(O)CC[C@@H]3CCN(C4CC(c5ccc(O)c(OC)c5)C4)C[C@@H]3C(=O)O)c2c1 (stereo partly drawn) [Example 33, (3R,4R)-1-[3-(4-hydroxy-3-methoxyphenyl)cyclobutyl]-4-[3-hydroxy-3-(6-methoxyquinolin-4-yl)propyl]piperidine-3-carboxylic acid] |  |  |  |  |  | > 64 | > 64 | > 64 | > 64 | > 64 |
| COc1ccc2nccc(C(O)CC[C@@H]3CCN(C4CC(c5c(C)cccc5C)C4)C[C@@H]3C(=O)O)c2c1 (stereo partly drawn) [Example 35, (3R,4R)-1-[3-(2,6-dimethylphenyl)cyclobutyl]-4-[3-hydroxy-3-(6-methoxyquinolin-4-yl)propyl] piperidine-3-carboxylic acid] |  |  |  |  |  | 4 (≈ 7.96 µM) | 1 (≈ 1.99 µM) | 64 (≈ 127 µM) | 1 (≈ 1.99 µM) | 1 (≈ 1.99 µM) |

Results, then the compound that gave them:

| MIC, column A (Staph aureus 1095 MRSA) [µg/mL] | MIC, column B (Staph aureus 1146 [1]) [µg/mL] | MIC, column C (Staph aureus 1146 [2]) [µg/mL] | MIC, column D (Staph aureus 2811) [µg/mL] | MIC, column E (Staph aureus 2812) [µg/mL] | MIC (Staph aureus 1095 MRSA) [µg/mL] | MIC (Staph aureus 1146 [1]) [µg/mL] | MIC (Staph aureus 1146 [2]) [µg/mL] | MIC (Staph aureus 2811) [µg/mL] | MIC (Staph aureus 2812) [µg/mL] | Compound |
| --- | --- | --- | --- | --- | --- | --- | --- | --- | --- | --- |
|  |  |  |  |  | 2 (≈ 4.09 µM) | 1 (≈ 2.05 µM) | 16 (≈ 32.7 µM) | 2 (≈ 4.09 µM) | 1 (≈ 2.05 µM) | COc1ccc2nccc(C(O)CC[C@@H]3CCN(C4CC(c5ccc(C)cc5)C4)C[C@@H]3C(=O)O)c2c1 (stereo partly drawn) [Example 6, (3R,4R)-4-[3-hydroxy-3-(6-methoxyquinolin-4-yl)propyl]-1-[3-(4-methylphenyl)cyclobutyl]piperidine-3-carboxylic acid] |
|  |  |  |  |  | 0.25 (≈ 0.508 µM) | 0.125 (≈ 0.254 µM) | 1 (≈ 2.03 µM) | 0.125 (≈ 0.254 µM) | 0.125 (≈ 0.254 µM) | COc1ccc2nccc(C(O)CC[C@@H]3CCN(C4CC(c5ccccc5F)C4)C[C@@H]3C(=O)O)c2c1 (stereo partly drawn) [Example 7, (3R,4R)-1-[3-(2-fluorophenyl)cyclobutyl]-4-[3-hydroxy-3-(6-methoxyquinolin-4-yl)propyl] piperidine-3-carboxylic acid] |
|  |  |  |  |  | 0.25 (≈ 0.51 µM) | 0.25 (≈ 0.51 µM) | 8 (≈ 16.3 µM) | 0.125 (≈ 0.255 µM) | 0.25 (≈ 0.51 µM) | COc1ccc2nccc(C(O)CC[C@@H]3CCN(C4CC(Oc5ccccc5)C4)C[C@@H]3C(=O)O)c2c1 (stereo partly drawn) [Example 8, (3R,4R)-4-[3-hydroxy-3-(6-methoxyquinolin-4-yl)propyl]-1-(3-phenoxycyclobutyl)piperidine-3-carboxylic acid] |
|  | 0.5 (≈ 1.02 µM) | 16 (≈ 32.7 µM) | 0.5 (≈ 1.02 µM) | 0.5 (≈ 1.02 µM) | 1 (≈ 2.05 µM) |  |  |  |  | COc1ccc2nccc(C(CC[C@@H]3CCN(C4CC(c5ccccc5)C4)C[C@@H]3C(=O)O)OC)c2c1 (stereo partly drawn) [Example 10, (3R,4R)-4-[3-methoxy-3-(6-methoxyquinolin-4-yl)propyl]-1-(3-phenylcyclobutyl)piperidine-3-carboxylic acid] |
| 1 (≈ 2.05 µM) | 2 (≈ 4.09 µM) | >64 | 2 (≈ 4.09 µM) | 2 (≈ 4.09 µM) |  |  |  |  |  | COc1ccc2nccc(C(CC[C@@H]3CCN(C4CC(c5ccccc5)C4)C[C@@H]3C(=O)O)OC)c2c1 (stereo partly drawn) [Example 11, (3R,4R)-4-[3-methoxy-3-(6-methoxyquinolin-4-yl)propyl]-1-(3-phenylcyclobutyl)piperidine-3-carboxylic acid] |
|  |  | 8 (≈ 16.4 µM) |  |  | 4 (≈ 8.19 µM) | 2 (≈ 4.09 µM) |  | 2 (≈ 4.09 µM) | 2 (≈ 4.09 µM) | COc1ccc2nccc(C(O)CC[C@@H]3CCN(C4CC(c5ccccc5)C4)CC3(C)C(=O)O)c2c1 (stereo partly drawn) [Example 12, (4R)-4-[3-hydroxy-3-(6-methoxyquinolin-4-yl)propyl]-3-methyl-1-(3-phenylcyclobutyl) piperidine-3-carboxylic acid] |
| 4 (≈ 8.19 µM) | 4 (≈ 8.19 µM) | 32 (≈ 65.5 µM) | 2 (≈ 4.09 µM) | 2 (≈ 4.09 µM) |  |  |  |  |  | COc1ccc2nccc(C(O)CC[C@@H]3CCN(C4CC(c5ccccc5)C4)CC3(C)C(=O)O)c2c1 (stereo partly drawn) [Example 13, (4R)-4-[3-hydroxy-3-(6-methoxyquinolin-4-yl)propyl]-3-methyl-1-(3-phenylcyclobutyl) piperidine-3-carboxylic acid] |
|  |  |  |  |  | 16 (≈ 33.6 µM) | 4 (≈ 8.41 µM) | 16 (≈ 33.6 µM) | 4 (≈ 8.41 µM) | 4 (≈ 8.41 µM) | COc1ccc2nccc(C(O)CC[C@@H]3CCN(C4CC(c5ccccn5)C4)C[C@@H]3C(=O)O)c2c1 (stereo partly drawn) [Example 21, (3R,4R)-4-[3-hydroxy-3-(6-methoxyquinolin-4-yl)propyl]-1-(3-pyridin-2-ylcyclobutyl)piperidine-3-carboxylic acid] |
|  |  |  |  |  | 0.5 (≈ 0.982 µM) | 0.25 (≈ 0.491 µM) | 4 (≈ 7.86 µM) | 0.25 (≈ 0.491 µM) | 0.25 (≈ 0.491 µM) | COc1ccc2nccc(C(O)CC[C@@H]3CCN(C4CC(c5cccc(Cl)c5)C4)C[C@@H]3C(=O)O)c2c1 (stereo partly drawn) [Example 29, (3R,4R)-1-[3-(3-chlorophenyl)cyclobutyl]-4-[3-hydroxy-3-(6-methoxyquinolin-4-yl)propyl] piperidine-3-carboxylic acid] |
|  |  |  |  |  | 4 (≈ 7.37 µM) | 8 (≈ 14.7 µM) | > 64 | 4 (≈ 7.37 µM) | 8 (≈ 14.7 µM) | COc1ccc2nccc(C(O)CC[C@@H]3CCN(C4CC(c5ccc(C(F)(F)F)cc5)C4)C[C@@H]3C(=O)O)c2c1 (stereo partly drawn) [Example 30, (3R,4R)-4-[3-hydroxy-3-(6-methoxyquinolin-4-yl)propyl]-1-{3-[4-(trifluoromethyl)phenyl]cyclobutyl} piperidine-3-carboxylic acid] |
|  |  |  |  |  | 16 (≈ 32.6 µM) | 32 (≈ 65.2 µM) | > 64 | 32 (≈ 65.2 µM) | 32 (≈ 65.2 µM) | COc1ccc2nccc(C(O)CC[C@@H]3CCN(C4CC(c5ccc(O)cc5)C4)C[C@@H]3C(=O)O)c2c1 (stereo partly drawn) [Example 31, (3R,4R)-4-[3-hydroxy-3-(6-methoxyquinolin-4-yl)propyl]-1-[3-(4-hydroxyphenyl)cyclobutyl] piperidine-3-carboxylic acid] |
|  |  |  |  |  | 1 (≈ 2.05 µM) | 1 (≈ 2.05 µM) | 16 (≈ 32.7 µM) | 0.5 (≈ 1.02 µM) | 0.5 (≈ 1.02 µM) | COc1ccc2nccc(C(O)CC[C@@H]3CCN(C4CC(c5ccccc5C)C4)C[C@@H]3C(=O)O)c2c1 (stereo partly drawn) [Example 34, (3R,4R)-4-[3-hydroxy-3-(6-methoxyquinolin-4-yl)propyl]-1-[3-(2-methylphenyl)cyclobutyl] piperidine-3-carboxylic acid] |
